Test results: patent US20050014830A1 (priority 2003, published 2005)
Like-named read-outs stand apart in the source and are kept apart here.

What was measured:
SARS virus = tested on: SARS virus; parameters: species or system SARS virus (coronavirus)
Serratia bacterium = tested on: Serratia bacterium; parameters: species or system Serratia species

In the case of `O=C(O)CCCCCCCO` [8-hydroxyoctanoic acid], the “conformation of the SARS virion (AFM picture)” value (shortened to “conformation of the SARS virion”) (SARS virus; FIG. 9B, a few minutes after treatment) is reported as “disruption”, the “conformation of the SARS virion” value (SARS virus; FIG. 9C, a few more minutes into treatment) is reported as “collapsed further more” and the “conformation of the SARS virion” value (SARS virus; FIG. 9D, final stage of treatment) is reported as “completely killed”. The “AFM height of the enterovirus virion after treatment” value (enterovirus) was “about 1,300 nm” and the “surface roughness of the bacterium measured by AFM” value (Serratia bacterium) was “increased”.
